Measured values from paper PMC9962200, “Selectively Modified Lactose and N-Acetyllactosamine Analogs at Three Key Positions to Afford Effective Galectin-3 Ligands” (International Journal of Molecular Sciences, 2023).
Structures can show the parent of a compound that is named as a salt.

Biological target: T1, human galectin-3 (hGal-3) (Homo sapiens, UniProt P17931)
T1 construct: P.K. and P.B. prepared recombinant full-length hGal-3 and contributed to the ITC experiments; made in house
Assay: Isothermal titration calorimetry (ITC) of sugar analogs with recombinant hGal-3
Type: binding
Details: 27 °C; for −ΔH: binding enthalpy, lectin monomer units, errors 1–4%; for −ΔG: calculated from ΔG = -RT ln(Ka), errors less than 2%; for −TΔS: calculated from ΔG = ΔH − TΔS; for −TΔS / Kd: errors 1–7%; for n Sites/ Monomer: number of binding sites per hGal-3 monomer, errors less than 4%; for Kd / Ka: pH 7.2, 20 mM PBS buffer; for Kd: recombinant hGal-3, Kd calculated from 1/Ka; for Ka: recombinant hGal-3, errors 1–7%; for Relative Potencies: relative to methyl lactoside 1 = 1.0
Method: The Kd value of PNP LacNAc (20) was similar to that of its propargyl Lac analog 11.
ITC experiments were performed using a VP-ITC instrument from GE. Injections of 4 µL of carbohydrate solutions were added from a computer-controlled micro syringe at an interval of 4 min into the sample solution of hGal-3 (cell volume = 1.43 mL) with stirring at 350 rpm. Control experiments were performed by injecting the carbohydrates into a cell containing only buffer. The concentration range of hGal-3 was 90–130 µΜ, and the concentrations of the carbohydrates were 15–25 mM based on the dry weight molecular weights of the latter molecules. The concentration of hGal-3 was based on its molecular mass. Titrations were done at 27 °C (pH 7.2) using 20 mM PBS buffer. The experimental data were fitted to a theoretical titration curve using software supplied by the vendor, with ΔH (binding enthalpy in kcal mol^−1) (lectin monomer units), Ka (association constant) and n (number of binding sites per monomer), as adjustable parameters. The Kd (dissociation constant) was calculated from 1/Ka. The quantity c = Ka Mt (0), where Mt (0) is the initial macromolecule concentration, is of importance in titration microcalorimetry. All experiments were performed with c values 1 < c < 500. The instrument was calibrated using the calibration kit containing ribonuclease A (RNase A) and cytidine 2′-monophosphate (2′-CMP) supplied by the manufacturer. Thermodynamic parameters were calculated from the Gibbs Free Energy equation, ΔG = ΔH − TΔS = -RT ln(Ka), where ΔG, ΔH, and ΔS are the changes in free energy, enthalpy, and entropy of binding, respectively. T is the absolute temperature and R = 1.98 cal mol^−11 K^−1.

T1 sequence (P17931 whole entry): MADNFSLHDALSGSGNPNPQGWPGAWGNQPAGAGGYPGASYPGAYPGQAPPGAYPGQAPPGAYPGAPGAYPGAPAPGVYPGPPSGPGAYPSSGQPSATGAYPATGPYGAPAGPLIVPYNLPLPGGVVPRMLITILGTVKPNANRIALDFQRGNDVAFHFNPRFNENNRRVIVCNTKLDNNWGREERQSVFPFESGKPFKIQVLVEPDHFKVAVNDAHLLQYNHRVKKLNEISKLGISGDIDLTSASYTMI

Compound	−ΔH [kcal/mol]	−ΔG [kcal/mol]	−TΔS [kcal/mol]	n Sites/ Monomer	Kd [µM]	Ka	Relative Potencies
CO[C@@H]1O[C@H](CO)[C@@H](O[C@@H]2O[C@H](CO)[C@H](O)[C@H](O)[C@H]2O)[C@H](O)[C@H]1O [Compound 1, methyl 4-O-β-D-galactopyranosyl-β-D-glucopyranoside, reference compound]	3.9	5.5	-1.6	1.08	91	1.1 10^4 M^−1	1.0
C#CCO[C@@H]1O[C@H](CO)[C@@H](O[C@@H]2O[C@H](CO)[C@H](O)[C@H](O)[C@H]2O)[C@H](O)[C@H]1O [Compound 4, Propargyl (β-D-Galactopyranosyl)-(1→4)-β-D-Glucopyranoside]	5.7	5.9	-0.2	0.98	47.6	2.1 10^4 M^−1	1.9
O=[N+]([O-])c1ccc(O[C@@H]2O[C@H](CO)[C@@H](O[C@@H]3O[C@H](CO)[C@H](O)[C@H](O)[C@H]3O)[C@H](O)[C@H]2O)cc1 [Compound 6, 4-Nitrophenyl (β-D-Galactopyranosyl)-(1→4)-β-D-Glucopyranoside]	3.7	5.9	-2.2	1.10	50	–	1.8
C#CCO[C@@H]1O[C@H](CO)[C@@H](O[C@@H]2O[C@H](CO)[C@H](O)[C@H](OS(=O)(=O)O)[C@H]2O)[C@H](O)[C@H]1O [Compound 11, Propargyl (3-O-Sulfo-β-D-Galactopyranosyl)-(1→4)-β-D-Glucopyranoside Sodium Salt]	3.8	6.1	-2.3	1.08	37	2.7 10^4 M^−1	2.5
O=[N+]([O-])c1ccc(O[C@@H]2O[C@H](CO)[C@@H](O[C@@H]3O[C@H](CO)[C@H](O)[C@H](OS(=O)(=O)O)[C@H]3O)[C@H](O)[C@H]2O)cc1 [Compound 12, 4-Nitrophenyl (3-O-Sulfo-β-D-Galactopyranosyl)-(1→4)-β-D-Glucopyranoside Sodium Salt]	6.0	6.4	-0.4	0.97	20.4	4.9 10^4 M^−1	4.5
CC(=O)N[C@H]1[C@H](Oc2ccc([N+](=O)[O-])cc2)O[C@H](CO)[C@@H](O[C@@H]2O[C@H](CO)[C@H](O)[C@H](O)[C@H]2O)[C@@H]1O [Compound 20, 4-Nitrophenyl (β-D-Galactopyranosyl)-(1→4)-2-Acetamido-2-Deoxy-β-D-Glucopyranoside]	7.3	6.1	1.2	1.05	33.3	3.0 10^4 M^−1	2.7
CC(=O)N[C@H]1[C@H](Oc2ccc([N+](=O)[O-])cc2)O[C@H](CO)[C@@H](O[C@@H]2O[C@H](CO)[C@H](O)[C@H](OS(=O)(=O)O)[C@H]2O)[C@@H]1O [Compound 23, 4-Nitrophenyl (3-O-Sulfo-β-D-Galactopyranosyl)-(1→4)-2-Acetamido-2-Deoxy-β-D-Glucopyranoside Sodium Salt]	3.3	6.3	-3.0	0.96	22.2	4.5 10^4 M^−1	4.1
C#CCO[C@@H]1O[C@H](CO)[C@@H](O[C@@H]2O[C@H](CO)[C@H](O)[C@H](O)[C@H]2O)[C@H](O)[C@H]1NC(C)=O [Compound 27, Propargyl (β-D-Galactopyranosyl)-(1→4)-2-Acetamido-2-Deoxy-β-D-Glucopyranoside]	4.2	6.0	-1.8	1.10	38	2.6 10^4 M^−1	2.4
C#CCO[C@@H]1O[C@H](CO)[C@@H](O[C@@H]2O[C@H](CO)[C@H](O)[C@H](OS(=O)(=O)O)[C@H]2O)[C@H](O)[C@H]1NC(C)=O [Compound 30, Propargyl (3-O-Sulfo-β-D-Galactopyranosyl)-(1→4)-2-Acetamido-2-Deoxy-β-D-Glucopyranoside Sodium Salt]	5.2	6.6	-1.4	1.07	14.7	6.8 10^4 M^−1	6.2
C#CCO[C@@H]1O[C@H](CO)[C@@H](O[C@@H]2O[C@H](CO)[C@H](O)[C@H](OCC(=O)O)[C@H]2O)[C@H](O)[C@H]1NC(C)=O [Compound 32, Propargyl (3-O-Carboxymethyl-β-D-Galactopyranosyl)-(1→4)-2-Acetamido-2-Deoxy-β-D-Glucopyranoside Sodium Salt]	4.3	5.8	–	1.10	52.6	1.9 10^4 M^−1	1.7
C#CCOC1OC(CO)C(OC2OC(CO)C(O)C(OC3(C(=O)O)CC(O)C(NC(C)=O)C(C(O)C(O)CO)O3)C2O)C(O)C1NC(C)=O (stereo not drawn) [Compound 33]	5.9	5.7	0.2	1.04	62.5	1.6 10^4 M^−1	1.5
